Reference: the supplement of paper PMC4862054

Legend:
[1] = tested on: BT-474; conditions: 72 h
In short: (§1)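 A 20 µl suspension of breast cancer cells was placed in 384-well plates that already contained compound at 5 concentrations in 10-fold steps across a compound-specific 10,000-fold range, and the plates were left for 72 h. CellTox Green fluorescence at 485/520 nm gave cell death, and CellTiter-Glo luminescence, read after 10 min at room temperature, gave viability. Each plate was normalised to 0.1 % DMSO and a positive kill control. EC50 was fitted from the curves and censored at the top concentration.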

[2] = tested on: BT-549; conditions: 72 h
In short: as §1

[3] = tested on: CAL-51; conditions: 72 h
In short: as §1

[4] = tested on: CAL-85-1; conditions: 72 h
In short: as §1

[5] = tested on: HCC1937; conditions: 72 h
In short: as §1

[6] = tested on: MCF-10A; conditions: 72 h
In short: as §1

[7] = tested on: MDA-MB-231; conditions: 72 h
In short: as §1

[8] = tested on: MDA-MB-436; conditions: 72 h
In short: as §1

[9] = tested on: MDA-MB-453; conditions: 72 h
In short: as §1

[10] = tested on: MDA-MB-468; conditions: 72 h
In short: as §1

[11] = tested on: SK-BR-3; conditions: 72 h
In short: as §1

[12] = tested on: BT-474; assay: normalised viability (% of control), CellTiter-Blue; higher = more viable cells (about 100 = DMSO control); conditions: 10 nM; incubation time: 72 h
In short: (§2)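 Each entry is normalised viability at a single listed concentration within a series. It comes from breast cancer cell lines incubated 72 h with compound in 384-well plates, then measured with CellTiter-Blue fluorescence at 560/590 nm. Every plate was normalised between vehicle (100) and a positive kill control (0).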

[13] = tested on: CAL-120; assay: as above; conditions: 10 nM; incubation time: 72 h
In short: as §2

[14] = tested on: CAL-85-1; assay: as above; conditions: 3 nM; incubation time: 72 h
In short: as §2

[15] = tested on: Hs578T; assay: as above; conditions: 10 nM; incubation time: 72 h
In short: as §2

[16] = tested on: MDA-MB-436; assay: as above; conditions: 10 nM; incubation time: 72 h
In short: as §2

[17] = tested on: MDA-MB-468; assay: as above; conditions: 10 nM; incubation time: 72 h
In short: as §2

[18] = tested on: BT-474; assay: normalised viability (% of control), CellTiter-Blue; higher = more viable cells (100 = DMSO, 0 = benzethonium chloride kill control); conditions: 1 nM; incubation time: 72 h
Procedure: (§3)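 DSRT, CellTiter-Blue viability, 72 h incubation. Signal is normalised to DMSO and benzethonium chloride controls. Value is the normalised response at dose 1.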

[19] = tested on: BT-549; assay: as above; conditions: 1 nM; incubation time: 72 h
Procedure: as §3

[20] = tested on: CAL-120; assay: as above; conditions: 1 nM; incubation time: 72 h
Procedure: as §3

[21] = tested on: CAL-148; assay: as above; conditions: 1 nM; incubation time: 72 h
Procedure: as §3

[22] = tested on: CAL-51; assay: as above; conditions: 1 nM; incubation time: 72 h
Procedure: as §3

[23] = tested on: CAL-85-1; assay: as above; conditions: 1 nM; incubation time: 72 h
Procedure: as §3

[24] = tested on: DU-4475; assay: as above; conditions: 1 nM; incubation time: 72 h
Procedure: as §3

[25] = tested on: HCC1143; assay: as above; conditions: 1 nM; incubation time: 72 h
Procedure: as §3

[26] = tested on: HCC1599; assay: as above; conditions: 1 nM; incubation time: 72 h
Procedure: as §3

[27] = tested on: HCC1937; assay: as above; conditions: 1 nM; incubation time: 72 h
Procedure: as §3

[28] = tested on: HDQ-P1; assay: as above; conditions: 1 nM; incubation time: 72 h
Procedure: as §3

[29] = tested on: Hs578T; assay: as above; conditions: 1 nM; incubation time: 72 h
Procedure: as §3

[30] = tested on: MDA-MB-231; assay: as above; conditions: 1 nM; incubation time: 72 h
Procedure: as §3

[31] = tested on: MDA-MB-436; assay: as above; conditions: 1 nM; incubation time: 72 h
Procedure: as §3

[32] = tested on: MDA-MB-453; assay: as above; conditions: 1 nM; incubation time: 72 h
Procedure: as §3

[33] = tested on: MDA-MB-468; assay: as above; conditions: 1 nM; incubation time: 72 h
Procedure: as §3

[34] = tested on: MFM-223; assay: as above; conditions: 1 nM; incubation time: 72 h
Procedure: as §3

[35] = tested on: SK-BR-3; assay: as above; conditions: 1 nM; incubation time: 72 h
Procedure: as §3

[36] = tested on: CAL-120; conditions: 72 h
In short: as §1

[37] = tested on: Hs578T; conditions: 72 h
In short: as §1

Row | EC50, CellTiter-Glo [1] | EC50, CellTiter-Glo [2] | EC50, CellTiter-Glo [5] | EC50, CellTiter-Glo [7] | EC50, CellTiter-Glo [8] | EC50, CellTiter-Glo [9] | EC50, CellTiter-Glo [10] | EC50, CellTiter-Glo [11] | Structure (SMILES) | EC50, CellTiter-Glo [3] | EC50, CellTiter-Glo [4] | EC50, CellTiter-Glo [6] | normalised viability [12] | normalised viability [13] | normalised viability [14] | normalised viability [15] | normalised viability [16] | normalised viability [17] | normalised viability [18] | normalised viability [19] | normalised viability [20] | normalised viability [21] | normalised viability [22] | normalised viability [23] | normalised viability [24] | normalised viability [25] | normalised viability [26] | normalised viability [27] | normalised viability [28] | normalised viability [29] | normalised viability [30] | normalised viability [31] | normalised viability [32] | normalised viability [33] | normalised viability [34] | normalised viability [35] | EC50, CellTiter-Glo [36] | EC50, CellTiter-Glo [37]
1 | 2.39 µM | 2.46 µM | 6.18 µM | 2590 nM | 2670 nM | 2920 nM | 1700 nM | 2160 nM | CN(C)C[C@@H]1CCn2cc(c3ccccc32)C2=C(C(=O)NC2=O)c2cn(c3ccccc23)CCO1 [Ruboxistaurin] | 2770 nM | 3.47 µM | 7.23 µM | 96.7% | 108% | 105% | 96.4% | 94.1% | 94.5% | 118% | 91.4% | 120% | 126% | 98.9% | 106% | 97% | 127% | 120% | 106% | 70.7% | 94.8% | 92.5% | 101% | 98.5% | 96.8% | 104% | 99.3% | – | –
2 | 6.9 µM | 5.42 µM | 0.126 µM | – | 607 nM | 9.61 nM | 3330 nM | 414 nM | Cn1cncc1[C@@](N)(c1ccc(Cl)cc1)c1ccc2c(c1)c(-c1cccc(Cl)c1)cc(=O)n2C [Tipifarnib] | 82.5 nM | 9.99 µM | 0.237 µM | 109% | 77.6% | 81.4% | 88.9% | 94.1% | 96.8% | 92.1% | 120% | 78% | 102% | 98.4% | 81.1% | 104% | 85.6% | 90.4% | 89% | 105% | 93.2% | 98.8% | 98.5% | 94.7% | 105% | 87.6% | 92.5% | 1370 nM | 7.87 µM
